These results are taken from US6548553B2, “Styryl sulfone anticancer agents” (Temple University-of the Commonwealth System of Higher …, priority 1997, dated 2003).

Structures are written as SMILES.

The first data set deals with LnCaP and MCF-7 cells. As to the kind of experiment: Trypan blue exclusion viability assay, Tables 2-4. It is filed as cell-based. The note with it: 5.0 μM compound, 48 hours. The method, then: The effect of the styryl sulfones on the growth of normal and tumor cells of breast and prostate was examine utilizing four cell lines, NIH3T3, MCF-7, BT-20 and LnCap. NIH/3T3 cells represent normal fibroblasts while LnCap is an androgen-dependent prostate tumor cell line. MCF-7 is an estrogen-responsive breast tumor cell line, while BT-20 is an estrogen-unresponsive breast tumor cell line. MCF-7 and BT-20 were grown in Dulbecco's modified Eagle's medium (DMEM) containing 10% fetal bovine serum supplemented with penicillin and streptomycin. LnCaP were cultured in RPMI with 10% fetal bovine serum containing penicillin and streptomycin. NIH3T3 cells were grown in DMEM containing 10% calf serum supplemented with penicillin and streptomycin. All cell cultures were maintained at 37° C. in a humidified atmosphere of 5% CO2.
Cells were treated with test compound at 2.5 μM or 5.0 μM concentration and cell viability was determined after 48 hours by the Trypan blue exclusion method. The compounds identified in Tables 2, 3 and 4 inhibited cell growth and induced cell death, to varying degrees. The tables list the percent viable LnCap and MCF-7 cells treated with 5.0 μM compound.
Regarding `O=C(C(=Cc1ccc(F)cc1)S(=O)(=O)c1ccccc1Cl)c1ccccc1` [Example 24], the “% viable LnCaP and MCF-7 cells” value was 64%.

The same data set, now with this note: 5.0 μM compound, 48 hours, read-out: % viable LnCaP and MCF-7 cells.
With `O=S(=O)(/C=C/c1ccc(Br)cc1)c1ccccc1` [Example 4, E-4-bromostyryl Phenyl Sulfone], the viability at 5 µM is 68%.
Turning to `O=S(=O)(/C=C\c1ccccc1)/C=C/c1ccc(Cl)cc1` [Example 22, (Z)-styryl-(E)-4-chlorostyryl Sulfone], the viability at 5 µM was determined as 72%.
Same read-out and setting: the figure for `O=S(=O)(/C=C\c1ccccc1)/C=C/c1ccc(Br)cc1` [Example 21, (Z)-styryl-(E)-4-bromostyryl Sulfone] is 68%; for `O=C(C(=Cc1ccc(Br)cc1)S(=O)(=O)c1ccc(Cl)cc1)c1ccccc1` [Example 26, 2-[(4-chlorophenyl)sulfonyl]-1-phenyl-3-(4-bromophenyl)-2-propen-1-one] it is 58%.
On the same count and under the same terms, the figure for `O=S(=O)(/C=C/c1ccccc1)c1ccccc1` [Example 1, E-styryl Phenyl Sulfone] is 89%; for `O=S(=O)(/C=C/c1ccc(Cl)cc1Cl)c1ccccc1` [Example 3, E-2,4-dichlorostyryl Phenyl Sulfone] it is 88%; for `O=S(=O)(/C=C/c1ccc(F)cc1)Cc1ccc(F)cc1` [Example 13, E-4-fluorostyryl 4-fluorobenzyl Sulfone] it is 43%.
Regarding `O=S(=O)(/C=C/c1ccccc1Cl)Cc1ccccc1` [Example 9, E-2-chlorostyryl Benzyl Sulfone], the viability at 5 µM was found to be 94%.
On the same count and under the same terms, the figure for `O=S(=O)(/C=C\c1ccccc1)/C=C/c1ccc(F)cc1` [Example 20, (Z)-styryl-(E)-4-fluorostyryl Sulfone] is 76%.
On the same count and under the same terms, next, `O=S(=O)(/C=C/c1ccc(Br)cc1)Cc1ccc(Br)cc1` [Example 16, E-4-bromostyryl 4-bromobenzyl Sulfone]: 51%.
For `O=C(C(=Cc1ccc(Br)cc1)S(=O)(=O)c1ccccc1Cl)c1ccccc1` [Example 25, 2-[(2-chlorophenyl)sulfonyl]-1-phenyl-3-(4-bromophenyl)-2-propen-1-one], the viability at 5 µM is 72%.
`O=S(=O)(/C=C/c1ccc(Cl)cc1)Cc1ccccc1` [Example 10, E-4-chlorostyryl Benzyl Sulfone]: the viability at 5 µM is 87%.
As to `O=S(=O)(/C=C/c1ccc(Cl)cc1)c1ccc(Cl)cc1` [Example 5, E-4-chlorostyryl 4-chlorophenyl Sulfone], the viability at 5 µM was determined as 64%.
On the same count and under the same terms, the figure for `O=S(=O)(/C=C/c1ccc(Br)cc1)c1ccc(Cl)cc1` [Example 8, E-4-bromostyryl 4-chlorophenyl Sulfone] is 69%; for `Cc1ccc(/C=C/S(=O)(=O)c2ccc(Cl)cc2)cc1` [Example 6, E-4-methylstyryl 4-chlorophenyl Sulfone] it is 92%; for `O=C(C(=Cc1ccc(Br)cc1)S(=O)(=O)c1ccccc1[N+](=O)[O-])c1ccccc1` [Example 27, 2-[(2-nitrophenyl)sulfonyl]-1-phenyl-3-(4-bromophenyl)-2-propen-1-one] it is 74%.
Same read-out and setting: next, `COc1ccc(/C=C/S(=O)(=O)c2ccc(Cl)cc2)cc1` [Example 7, E-4-methoxystyryl 4-chlorophenyl Sulfone]: 90%.
Take `O=C(C(=Cc1ccc(F)cc1)S(=O)(=O)c1ccc(F)cc1)c1ccccc1` [Example 23, 2-[(4-fluorophenyl)sulfonyl]-1-phenyl-3-(4-fluorophenyl)-2-propen-1-one]: the viability at 5 µM came out at 76%.
In the case of `O=S(=O)(/C=C/c1ccc(Cl)cc1)c1ccccc1` [Example 2, E-4-chlorostyryl Phenyl Sulfone], the viability at 5 µM is 90%.
